Results published in article PMC10685318, “Trans-cyclosulfamidate mannose-configured cyclitol allows isoform-dependent inhibition of GH47 α-D-mannosidases through a bump–hole strategy” (Chemical Science, 2023).

What was measured:
[1] = Chemical stability of the final compounds on storage; assay type: physicochemical
Source text: 1,6-Cis-manno-cyclosulfate, 4, and 1,6-trans-manno-cyclosulfate, 5, were synthesized from mannose-configured cis-diol and trans-diol, respectively (ESI, Scheme S1 ^†).

CkGH47 L310S = biological target: T1, CkGH47 L310S (Caulobacter sp. K31, UniProt B0SWV2, L310S); experiment: Isothermal titration calorimetry; assay type: binding, Caulobacter K31 strain
T1 sequence (B0SWV2 25-462 L310S): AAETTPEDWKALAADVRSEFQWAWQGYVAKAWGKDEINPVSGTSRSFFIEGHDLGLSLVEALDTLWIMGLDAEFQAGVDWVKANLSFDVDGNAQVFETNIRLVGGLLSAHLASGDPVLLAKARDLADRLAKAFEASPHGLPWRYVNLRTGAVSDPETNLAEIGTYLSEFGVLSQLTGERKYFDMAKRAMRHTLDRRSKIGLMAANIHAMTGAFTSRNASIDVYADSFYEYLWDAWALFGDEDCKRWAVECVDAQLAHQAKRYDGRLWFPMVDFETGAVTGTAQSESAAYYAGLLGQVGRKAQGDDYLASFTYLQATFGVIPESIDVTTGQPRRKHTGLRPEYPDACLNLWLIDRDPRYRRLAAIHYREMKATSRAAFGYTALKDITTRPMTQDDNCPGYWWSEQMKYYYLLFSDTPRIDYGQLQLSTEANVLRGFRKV
Source text: Trans-Cyclosulfamidate Cyclitols Males et al.
Figure S6. Isothermal titration calorimetry binding thermodynamics between CkGH47 L310S and 6. A. raw data injection profile;
B. Titration curve. N = 1.01 ± 0.02 sites, ΔH = -7.39 ± 0.19 kcal mol-1.
Figure S7. Overlay of the human GH47 α-1,2-mannosidase structures highlighting the conserved active site. Crystal structure of ERManI is in orange (PDB ID: 1FMI); the remaining structures were predicted by Alphafold[5], in light blue is GMIB, in dark blue is GMIA, in purple is GMIC, in yellow is EDEM2, in red is EDEM3 and in pink is EDEM1. A. The crystal structure from this work of CkGH47 and 3 is in green. Residues annotated according to the numbering of CkGH47. B. The human GH47 enzymes are superposed minus the CkGH47 enzyme; the residues are annotated according to the numbering of HsERManI. […]
2.1 Biochemical and biological methods
To obtain Michaelis-Menten kinetics
Lastly, to achieve an inhibition constant, the
The gradient of the graph, V0/Vi
After taking each time point, the sample was heat denatured at 95 °C for 5 minutes. The reactions were conducted in triplicate and averaged. […]
microplate spectrophotometer (BioTek). The mannose detection kit (Megazyme) was used to detect […]
dehydrogenase, was monitored at 340 nm. The absorbance after hexokinase was added to the mixture […]
2.1.2 Isothermal titration calorimetry
MicroCal ITC200 calorimeter at 25 °C over 20 injections. The experiment was duplicated to obtain a […]
the MicroCal PEAK-ITC analysis software.
2.2 Crystallographic data collection and refinement of CkGH47
3′ and the reverse primer was 5′-[…]-3′. Protein production and purification was followed as described previously.[3]
Reference data in the form of a
Refinement of the model was conducted […]
conformation was conducted using […]. Details of the data collection and refinement statistics […]
Figures of the structure were produced by using CCP4mg.

[2] = isothermal titration calorimetry

Structure (SMILES): O=S1(=O)N[C@@H]2[C@@H](O)[C@@H](O)[C@H](O)[C@@H](CO)[C@H]2O1 [compound 6, 1,6-trans-manno-cyclosulfamidate]
- chemical stability [1]: chemically stable
- Kd (CkGH47 L310S): 0.97 µM
- N (CkGH47 L310S; [2]): 1.01 ± 0.02 sites
- ΔH (CkGH47 L310S; [2]): -7.39 ± 0.19 kcal/mol
